Assay results from patent publication US20250290117A1, “MOLECULAR PHENOTYPIC ANTIMICROBIAL SUSCEPTIBILITY TESTING” (priority 2024, published 2025).

Legend:
Escherichia coli = experiment: Traditional culture-based antimicrobial susceptibility test; format: cell-based
Procedure, shortened: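 E. coli isolates underwent conventional growth, isolation and exposure to antimicrobials, giving a culture-based susceptibility call for each agent.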

[1] = tested on: pathogens of clinical samples; experiment: Molecular phenotypic antimicrobial susceptibility test of clinical samples, extraction DNA purification step prior to PCR (Table 6); format: cell-based
Procedure, shortened: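 Patient specimens in boric acid were grown in culture medium, adjusted to 0.5 McFarland by optical density, then incubated 12-16 hours with antimicrobials in Mueller Hinton Broth at breakpoint concentrations. Growth was read by semi-quantitative PCR, alongside a no-antimicrobial well for pathogen load.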

[2] = E. coli #1 - WDCM 00090 - 6.2×E3
[3] = E. coli #2 - WDCM 00090 - 6.2×E3
[4] = E. coli, clinical sample of r10-r24
[5] = E. coli, clinical sample of r10-r24, Ct Control Avg 18.112
[6] = E. coli, clinical sample of r158-r172
[7] = E. coli, clinical sample of r158-r172, Ct Control Avg 20.146
[8] = K. aerogenes, clinical sample of r136-r150
[9] = K. aerogenes, clinical sample of r136-r150, Ct Control Avg 19.994
[10] = K. pneumoniae, clinical sample of r121-r135
[11] = K. pneumoniae, clinical sample of r121-r135, Ct Control Avg 24.272
[12] = M. morganii, clinical sample of r55-r69
[13] = M. morganii, clinical sample of r55-r69, Ct Control Avg 28.86
[14] = M. morganii, clinical sample of r70-r84
[15] = M. morganii, clinical sample of r70-r84, Ct Control Avg 27.053
[16] = P. mirabilis, clinical sample of r25-r39
[17] = P. mirabilis, clinical sample of r25-r39, Ct Control Avg 26.064
[18] = P. mirabilis, clinical sample of r40-r54
[19] = P. mirabilis, clinical sample of r40-r54, Ct Control Avg 26.987
[20] = S. aureus, clinical sample of r85-r92
[21] = S. aureus, clinical sample of r85-r92, Ct Control Avg 24.32

| Compound | Traditional Culture Results (Escherichia coli; [2]) | Traditional Culture Results (Escherichia coli; [3]) | Traditional Culture Result (Escherichia coli; E. coli isolate 1 (Table 3)) | Traditional Culture Result (Escherichia coli; E. coli isolate 2 (Table 3)) | Traditional Culture Result (Escherichia coli; E. coli isolate 3 (Table 3)) | Traditional Culture Result (Escherichia coli; E. coli isolate 4 (Table 3)) | Traditional Culture Result (Escherichia coli; E. coli isolate 5 (Table 3)) | Traditional Culture Result (Escherichia coli; E. coli isolate JJ1887) | Molecular Antibiotic Susceptibility Result [1, 4] | Molecular Antibiotic Susceptibility Result [1, 6] | Ct [1, 7] | Molecular Antibiotic Susceptibility Result [1, 8] | Ct [1, 9] | Molecular Antibiotic Susceptibility Result [1, 10] | Ct [1, 11] | Molecular Antibiotic Susceptibility Result [1, 12] | Ct [1, 13] | Molecular Antibiotic Susceptibility Result [1, 14] | Molecular Antibiotic Susceptibility Result [1, 16] | Molecular Antibiotic Susceptibility Result [1, 18] | also measured |
| --- | --- | --- | --- | --- | --- | --- | --- | --- | --- | --- | --- | --- | --- | --- | --- | --- | --- | --- | --- | --- | --- |
| Gentamicin | Sensitive | Sensitive | Sensitive | Sensitive | Sensitive | Sensitive | Sensitive | Resistant | Sensitive (Antimicrobial wells with pathogen load detected below the control wells (typically >2 cycle thresholds later) may be reported as Sensitive) | Sensitive (Antimicrobial wells with pathogen load detected below the control wells (typically >2 cycle thresholds later) may be reported as Sensitive) | 32.759 | Sensitive (Antimicrobial wells with pathogen load detected below the control wells (typically >2 cycle thresholds later) may be reported as Sensitive) | 36.1 | Sensitive (Antimicrobial wells with pathogen load detected below the control wells (typically >2 cycle thresholds later) may be reported as Sensitive) | 44.195 | Sensitive (Antimicrobial wells with pathogen load detected below the control wells (typically >2 cycle thresholds later) may be reported as Sensitive) | Undet | Sensitive (Antimicrobial wells with pathogen load detected below the control wells (typically >2 cycle thresholds later) may be reported as Sensitive) | Sensitive (Antimicrobial wells with pathogen load detected below the control wells (typically >2 cycle thresholds later) may be reported as Sensitive) | Sensitive (Antimicrobial wells with pathogen load detected below the control wells (typically >2 cycle thresholds later) may be reported as Sensitive) | Ct [1, 5]: 28.366; Ct [1, 15]: Undet; Ct [1, 17]: 28.953; Ct [1, 19]: 37.234; Molecular Antibiotic Susceptibility Result [1, 20]: Sensitive (Antimicrobial wells with pathogen load detected below the control wells (typically >2 cycle thresholds later) may be reported as Sensitive); Ct [1, 21]: Undet |
| Cc1nnc(SCC2=C(C(=O)O)N3C(=O)[C@@H](NC(=O)Cn4cnnn4)[C@H]3SC2)s1 [Cefazolin] | Sensitive | Sensitive | Resistant | Resistant | Resistant | Resistant | Sensitive | Resistant | Sensitive (Antimicrobial wells with pathogen load detected below the control wells (typically >2 cycle thresholds later) may be reported as Sensitive) | Sensitive (Antimicrobial wells with pathogen load detected below the control wells (typically >2 cycle thresholds later) may be reported as Sensitive) | – | Resistant | – | Sensitive (Antimicrobial wells with pathogen load detected below the control wells (typically >2 cycle thresholds later) may be reported as Sensitive) | – | Resistant | – | Resistant | Resistant | Sensitive (Antimicrobial wells with pathogen load detected below the control wells (typically >2 cycle thresholds later) may be reported as Sensitive) | – |
| CC1(C)S[C@@H]2[C@H](NC(=O)[C@H](N)c3ccccc3)C(=O)N2[C@H]1C(=O)O [Ampicillin] | Sensitive | Sensitive | – | – | – | Resistant | Sensitive | Resistant | Resistant | Sensitive (Antimicrobial wells with pathogen load detected below the control wells (typically >2 cycle thresholds later) may be reported as Sensitive) | 29.961 | Resistant | 19.504 | Resistant | 21.189 | Resistant | 25.767 | Resistant | Sensitive (Antimicrobial wells with pathogen load detected below the control wells (typically >2 cycle thresholds later) may be reported as Sensitive) | Sensitive (Antimicrobial wells with pathogen load detected below the control wells (typically >2 cycle thresholds later) may be reported as Sensitive) | Molecular Antibiotic Susceptibility Result ([1]; E. faecalis, clinical sample of r93-r99): Sensitive (Antimicrobial wells with pathogen load detected below the control wells (typically >2 cycle thresholds later) may be reported as Sensitive); Ct ([1]; E. faecalis, clinical sample of r93-r99, Ct Control Avg 22.987): 31.697; Molecular Antibiotic Susceptibility Result ([1]; E. faecalis, clinical sample of r100-r106): sensitive; Ct ([1]; E. faecalis, clinical sample of r100-r106, Ct Control Avg 23.073): 37.6; Molecular Antibiotic Susceptibility Result ([1]; E. faecalis, clinical sample of r107-r113): sensitive; Ct ([1]; E. faecalis, clinical sample of r107-r113, Ct Control Avg 22.144): 29.684; Molecular Antibiotic Susceptibility Result ([1]; E. faecalis, clinical sample of r114-r120): Sensitive (Antimicrobial wells with pathogen load detected below the control wells (typically >2 cycle thresholds later) may be reported as Sensitive); Ct ([1]; E. faecalis, clinical sample of r114-r120, Ct Control Avg 20.822): 33.01; Molecular Antibiotic Susceptibility Result ([1]; E. faecalis, clinical sample of r151-r157): Sensitive (Antimicrobial wells with pathogen load detected below the control wells (typically >2 cycle thresholds later) may be reported as Sensitive); Ct ([1]; E. faecalis, clinical sample of r151-r157, Ct Control Avg 20.56): Undet; Ct [1, 15]: 25.947; Ct [1, 17]: 34.177; Ct [1, 19]: 35.741 |
| Trimethoprim/Sulfamethoxazole [TMP/SMX] | – | – | Sensitive | Sensitive | Sensitive | Resistant | Sensitive | Resistant | Sensitive (Antimicrobial wells with pathogen load detected below the control wells (typically >2 cycle thresholds later) may be reported as Sensitive) | Sensitive (Antimicrobial wells with pathogen load detected below the control wells (typically >2 cycle thresholds later) may be reported as Sensitive) | 33.402 | Sensitive (Antimicrobial wells with pathogen load detected below the control wells (typically >2 cycle thresholds later) may be reported as Sensitive) | 36.5 | Sensitive (Antimicrobial wells with pathogen load detected below the control wells (typically >2 cycle thresholds later) may be reported as Sensitive) | 34.918 | Sensitive (Antimicrobial wells with pathogen load detected below the control wells (typically >2 cycle thresholds later) may be reported as Sensitive) | Undet | Sensitive (Antimicrobial wells with pathogen load detected below the control wells (typically >2 cycle thresholds later) may be reported as Sensitive) | Sensitive (Antimicrobial wells with pathogen load detected below the control wells (typically >2 cycle thresholds later) may be reported as Sensitive) | Sensitive (Antimicrobial wells with pathogen load detected below the control wells (typically >2 cycle thresholds later) may be reported as Sensitive) | Ct [1, 5]: 28.072; Ct [1, 15]: 30.225; Ct [1, 17]: 30.865; Ct [1, 19]: 33.833; Molecular Antibiotic Susceptibility Result [1, 20]: Sensitive (Antimicrobial wells with pathogen load detected below the control wells (typically >2 cycle thresholds later) may be reported as Sensitive); Ct [1, 21]: 27.399 |
